Consider eight molecules from patent publication US9487545B2, “Fused ring-containing oxazolidinones antibiotics” (Xuanzhu Pharma Co., Ltd., priority 2011, dated 2016).

Common to all, as to assay type: cell-based
The test system of test [1] is Enterococcus faecalis (efa). The test can be described thus: In vitro antibacterial activity, standard agar dilution method, efa. To be noted: clinically separated strains, read-out: Antibiotic Activity MIC efa. The source says: (§1) Strains for test: all the clinically separated strains below were purchased from public facilities.
(§2) Methicillin-resistant Staphylococcus aureus (MRSA), methicillin-resistant Staphylococcus epidermidis (MRSE), methicillin-sensitive Staphylococcus aureus (MSSA), methicillin-sensitive Staphylococcus epidermidis (MSSE), Enterococcus faecalis (efa), Enterococcus faecium (efm), streptococcus pneumoniae. Obtained from: Qianfoshan Hospital, First People's Hospital of Yunnan Province, Renji Hospital of Shanghai, People's Hospital of Jilin Province, Southwest Hospital.
(§3) some compounds of the present invention (chemical names and preparation methods thereof are as described in Preparation Examples of the compounds); linezolid (commercially available) and compound 38 (prepared following the process of Patent US2011098471).
(§4) standard agar dilution method, reference was made to National Committee for Clinical Laboratory Standards. 2006. Methods for Dilution Antimicrobial Susceptibility Tests for Bacteria That Grow Aerobically, Approved Standard Seventh Edition M7-A7.
(In general: In agar dilution the substance is mixed into plates at graded concentrations.)

The test system of test [2] is Enterococcus faecium (efm). The test can be described thus: In vitro antibacterial activity, standard agar dilution method, efm. To be noted: clinically separated strains, read-out: Antibiotic Activity MIC efm.
From the text: as §1, §2, §3, §4

Test [3] concerns Methicillin-resistant Staphylococcus aureus (MRSA). The test can be described thus: In vitro antibacterial activity, standard agar dilution method, MRSA. To be noted: clinically separated strains, read-out: Antibiotic Activity MIC MRSA.
From the text: as §1, §2, §3, §4

The subject of another test is streptococcus pneumoniae. Kind of test: In vitro antibacterial activity, standard agar dilution method, Streptococcus pneumoniae. To be noted: clinically separated strains.
From the text: as §1, §2, §3, §4

Test [4] relates to methicillin-sensitive Staphylococcus epidermidis (MSSE). The test can be described thus: In vitro antibacterial activity, standard agar dilution method, MSSE. To be noted: clinically separated strains, read-out: Antibiotic Activity MIC MSSE.
From the text: as §1, §2, §3, §4

In test [5] the test system is methicillin-sensitive Staphylococcus aureus (MSSA). Kind of test: In vitro antibacterial activity, standard agar dilution method, MSSA. To be noted: clinically separated strains, read-out: Antibiotic Activity MIC MSSA.
From the text: as §1, §2, §3, §4

In test [6] the test system is methicillin-resistant Staphylococcus epidermidis (MRSE). The test can be described thus: In vitro antibacterial activity, standard agar dilution method, MRSE. The conditions noted are these: clinically separated strains, read-out: Antibiotic Activity MIC MRSE.
From the text: as §1, §2, §3, §4

Converted amounts (≈) assume the structure as drawn.

Usually MIC stands for the lowest concentration found to suppress growth. Take `Cn1nnc(N2Cc3ccc(-c4ccc(N5C[C@H](CO)OC5=O)cc4F)cc3C2)n1` [Compound 1, (R)-3-(3-fluoro-4-(2-(2-methyl-2H-tetrazol-5-yl)isoindolin-5-yl)phenyl)-5-(hydroxylmethyl)oxazolidin-2-one]: the minimal inhibitory concentration (MIC) came to 1 µg/mL (≈ 2.44 µM) in test [1]; 0.5 µg/mL (≈ 1.22 µM) in test [2]; 1 µg/mL (≈ 2.44 µM) in test [3]; 0.5 µg/mL (≈ 1.22 µM) in test [4]; 1 µg/mL (≈ 2.44 µM) in test [5]; 0.5 µg/mL (≈ 1.22 µM) in test [6]. Further, in the test with streptococcus pneumoniae, the “Antibiotic Activity MIC Streptococcus pneumoniae” value was 0.25 µg/mL.

For the molecule `CC(=O)NC[C@H]1CN(c2ccc(-c3ccc4c(c3)CN(c3nnn(C)n3)C4)c(F)c2)C(=O)O1` [Compound 2, (S)—N-((3-(3-fluoro-4-(2-(2-methyl-2H-tetrazol-5-yl)isoindolin-5-yl)phenyl)-2-oxo-oxazolidin-5-yl)methyl)acetamide], the minimum inhibitory concentration (MIC) turned out to be 0.5 µg/mL (≈ 1.11 µM) in test [1]; 0.5 µg/mL (≈ 1.11 µM) in test [2]; 0.25 µg/mL (≈ 0.554 µM) in test [3]; 0.5 µg/mL (≈ 1.11 µM) in test [4]; 0.5 µg/mL (≈ 1.11 µM) in test [5]; 0.25 µg/mL (≈ 0.554 µM) in test [6]. Besides, in the test with streptococcus pneumoniae, the “Antibiotic Activity MIC Streptococcus pneumoniae” value was 0.5 µg/mL.

On to `O=C1O[C@@H](CO)CN1c1ccc(-c2ccc3c(c2)CN(c2cnn[nH]2)C3)c(F)c1` [Compound 3, (R)-3-(4-(2-(1H-1,2,3-triazol-5-yl)isoindolin-5-yl)-3-fluorophenyl)-5-(hydroxylmethyl)oxazolidin-2-one], for which the minimal inhibitory concentration (MIC) is 0.5 µg/mL (≈ 1.26 µM) in test [1]; 0.5 µg/mL (≈ 1.26 µM) in test [2]; 0.5 µg/mL (≈ 1.26 µM) in test [3]; 0.125 µg/mL (≈ 0.316 µM) in test [4]; 0.5 µg/mL (≈ 1.26 µM) in test [5]; 0.25 µg/mL (≈ 0.632 µM) in test [6]. Besides, the “Antibiotic Activity MIC Streptococcus pneumoniae” value in the test with streptococcus pneumoniae is 0.5 µg/mL.

As to `CC(=O)NC[C@H]1CN(c2ccc(-c3ccc4c(c3)CN(c3cnn[nH]3)C4)c(F)c2)C(=O)O1` [Compound 4, (S)—N-((3-(4-(2-(1H-1,2,3-triazol-5-yl)isoindolin-5-yl)-3-fluorophenyl)-2-oxo-oxazolidin-5-yl)methyl)acetamide], the MIC is 0.25 µg/mL (≈ 0.573 µM) in test [1]; 0.25 µg/mL (≈ 0.573 µM) in test [2]; 0.25 µg/mL (≈ 0.573 µM) in test [3]; 0.125 µg/mL (≈ 0.286 µM) in test [4]; 0.25 µg/mL (≈ 0.573 µM) in test [5]; 0.25 µg/mL (≈ 0.573 µM) in test [6]. Further, the “Antibiotic Activity MIC Streptococcus pneumoniae” value in the test on streptococcus pneumoniae is 0.5 µg/mL.

On to `Cn1nnnc1N1Cc2ccc(-c3ccc(N4C[C@H](CO)OC4=O)cc3F)cc2C1` [Compound 19], for which the minimum inhibitory concentration (MIC) in test [1] came out at 2 µg/mL (≈ 4.87 µM); in test [2] it was 2 µg/mL (≈ 4.87 µM); in test [3], 1 µg/mL (≈ 2.44 µM); in test [4], 0.5 µg/mL (≈ 1.22 µM); in test [5], 1 µg/mL (≈ 2.44 µM); in test [6], 1 µg/mL (≈ 2.44 µM). Besides, the “Antibiotic Activity MIC Streptococcus pneumoniae” value with streptococcus pneumoniae was found to be 1 µg/mL.

For the molecule `O=C1O[C@@H](CO)CN1c1ccc(-c2ccc3c(c2)CN(c2ccn[nH]2)C3)c(F)c1` [Compound 20], the MIC is 8 µg/mL (≈ 20.3 µM) in test [1]; 8 µg/mL (≈ 20.3 µM) in test [2]; 2 µg/mL (≈ 5.07 µM) in test [3]; 0.5 µg/mL (≈ 1.27 µM) in test [4]; 1 µg/mL (≈ 2.54 µM) in test [5]; 0.5 µg/mL (≈ 1.27 µM) in test [6].

Take `CC(=O)NC[C@H]1CN(c2ccc(-c3ccc4nc(-c5nnn(C)n5)cn4c3)c(F)c2)C(=O)O1` [Compound 38, reference compound]: the MIC is 0.25 µg/mL (≈ 0.555 µM) in test [1]; 0.5 µg/mL (≈ 1.11 µM) in test [2]; 0.5 µg/mL (≈ 1.11 µM) in test [3]; 0.5 µg/mL (≈ 1.11 µM) in test [4]; 0.5 µg/mL (≈ 1.11 µM) in test [5]; 0.25 µg/mL (≈ 0.555 µM) in test [6]. Besides, the “Antibiotic Activity MIC Streptococcus pneumoniae” value with streptococcus pneumoniae came out at 0.5 µg/mL.

On to `CC(=O)NC[C@H]1CN(c2ccc(N3CCOCC3)c(F)c2)C(=O)O1` [Linezolid, reference compound], for which the MIC worked out at 2 µg/mL (≈ 5.93 µM) in test [1]; 2 µg/mL (≈ 5.93 µM) in test [2]; 2 µg/mL (≈ 5.93 µM) in test [3]; 2 µg/mL (≈ 5.93 µM) in test [4]; 2 µg/mL (≈ 5.93 µM) in test [5]; 1 µg/mL (≈ 2.96 µM) in test [6]. In addition, in the test with streptococcus pneumoniae, the “Antibiotic Activity MIC Streptococcus pneumoniae” value was 2 µg/mL.
